According to ChEMBL document CHEMBL2074568, “Characterization of the transport properties of human multidrug resistance protein 7 (MRP7, ABCC10)” (Mol Pharmacol, 2003):
One block for each molecule: values may come before it.

Key:
Assay type in all cases: functional, cell membranes
Parameters in all cases: scale not given: the % may be the effect or the level left
[1] = biological target: T1, ATP-binding cassette sub-family C member 10 (Homo sapiens) (UniProt Q5T3U5); experiment: TP_TRANSPORTER: inhibition of E217betaG uptake (E217betaG: 1 uM, 16alpha,17beta-Estriol 16-(beta-D-glucuronide): 100 uM) in membrane vesicles from MRP7-expressing HEK293 cells; details: Membrane vesicle
T1 sequence (whole entry): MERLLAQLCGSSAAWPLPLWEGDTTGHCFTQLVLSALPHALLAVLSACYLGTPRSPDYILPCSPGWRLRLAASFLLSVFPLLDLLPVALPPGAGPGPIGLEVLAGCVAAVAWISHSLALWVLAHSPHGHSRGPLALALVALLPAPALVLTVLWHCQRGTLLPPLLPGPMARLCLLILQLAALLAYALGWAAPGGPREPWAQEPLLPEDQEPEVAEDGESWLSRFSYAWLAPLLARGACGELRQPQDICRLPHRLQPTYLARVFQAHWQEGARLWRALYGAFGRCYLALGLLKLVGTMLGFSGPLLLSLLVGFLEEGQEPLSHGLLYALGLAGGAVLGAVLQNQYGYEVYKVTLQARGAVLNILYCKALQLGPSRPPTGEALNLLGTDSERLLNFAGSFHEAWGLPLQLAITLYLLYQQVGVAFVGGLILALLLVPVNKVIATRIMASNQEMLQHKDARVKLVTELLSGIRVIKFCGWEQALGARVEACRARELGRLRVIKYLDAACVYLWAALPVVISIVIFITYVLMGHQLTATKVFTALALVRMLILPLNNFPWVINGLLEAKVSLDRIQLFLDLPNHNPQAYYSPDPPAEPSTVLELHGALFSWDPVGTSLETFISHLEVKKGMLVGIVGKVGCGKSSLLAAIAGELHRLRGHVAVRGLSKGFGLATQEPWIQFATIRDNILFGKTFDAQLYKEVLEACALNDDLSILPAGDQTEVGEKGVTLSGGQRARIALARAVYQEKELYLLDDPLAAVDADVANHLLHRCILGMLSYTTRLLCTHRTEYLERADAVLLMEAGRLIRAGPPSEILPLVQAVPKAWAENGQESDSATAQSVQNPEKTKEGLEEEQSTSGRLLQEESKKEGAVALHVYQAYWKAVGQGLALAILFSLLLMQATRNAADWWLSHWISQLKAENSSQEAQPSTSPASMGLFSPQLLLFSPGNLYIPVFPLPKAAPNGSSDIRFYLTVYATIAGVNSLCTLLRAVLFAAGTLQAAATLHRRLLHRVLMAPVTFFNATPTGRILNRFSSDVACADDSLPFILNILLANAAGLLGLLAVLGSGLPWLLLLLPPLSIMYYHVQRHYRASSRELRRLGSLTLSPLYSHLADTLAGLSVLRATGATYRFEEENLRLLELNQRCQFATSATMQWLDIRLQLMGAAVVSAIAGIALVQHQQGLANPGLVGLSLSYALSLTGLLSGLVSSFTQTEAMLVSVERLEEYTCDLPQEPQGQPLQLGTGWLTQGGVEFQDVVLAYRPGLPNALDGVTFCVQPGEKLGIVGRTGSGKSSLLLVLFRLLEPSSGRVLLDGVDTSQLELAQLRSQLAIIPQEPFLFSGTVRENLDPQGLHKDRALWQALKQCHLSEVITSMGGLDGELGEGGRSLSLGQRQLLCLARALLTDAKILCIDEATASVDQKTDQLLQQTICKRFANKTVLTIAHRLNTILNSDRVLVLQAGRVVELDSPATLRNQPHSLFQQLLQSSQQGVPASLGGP

[2] = biological target: T1, ATP-binding cassette sub-family C member 10 (Homo sapiens); experiment: TP_TRANSPORTER: inhibition of E217betaG uptake (E217betaG: 1 uM, Trequinsin: 100 uM) in membrane vesicles from MRP7-expressing HEK293 cells; details: Membrane vesicle
[3] = biological target: T1, ATP-binding cassette sub-family C member 10 (Homo sapiens); experiment: TP_TRANSPORTER: inhibition of E217betaG uptake (E217betaG: 1 uM, DNP-SG:10uM) in membrane vesicles from MRP7-expressing HEK293 cells; details: Membrane vesicle
[4] = biological target: T1, ATP-binding cassette sub-family C member 10 (Homo sapiens); experiment: TP_TRANSPORTER: inhibition of E217betaG uptake (E217betaG: 1 uM, Doxorubicin: 30 uM) in membrane vesicles from MRP7-expressing HEK293 cells; details: Membrane vesicle
[5] = biological target: T1, ATP-binding cassette sub-family C member 10 (Homo sapiens); experiment: TP_TRANSPORTER: inhibition of E217betaG uptake (E217betaG: 1 uM, Verapamil: 100 uM) in membrane vesicles from MRP7-expressing HEK293 cells; details: Membrane vesicle
[6] = biological target: T1, ATP-binding cassette sub-family C member 10 (Homo sapiens); experiment: TP_TRANSPORTER: inhibition of E217betaG uptake (E217betaG: 1 uM, VP-16: 30 uM) in membrane vesicles from MRP7-expressing HEK293 cells; details: Membrane vesicle
[7] = biological target: T1, ATP-binding cassette sub-family C member 10 (Homo sapiens); experiment: TP_TRANSPORTER: inhibition of E217betaG uptake (E217betaG: 1 uM, 17alpha-Ethynyl-17beta-Estradiol: 100 uM) in membrane vesicles from MRP7-expressing HEK293 cells; details: Membrane vesicle
[8] = biological target: T1, ATP-binding cassette sub-family C member 10 (Homo sapiens); experiment: TP_TRANSPORTER: inhibition of E217betaG uptake (E217betaG: 1 uM, beta-Estradiol: 100 uM) in membrane vesicles from MRP7-expressing HEK293 cells; details: Membrane vesicle
[9] = biological target: T1, ATP-binding cassette sub-family C member 10 (Homo sapiens); experiment: TP_TRANSPORTER: inhibition of E217betaG uptake (E217betaG: 1 uM, Sulfinpyrazone:30uM) in membrane vesicles from MRP7-expressing HEK293 cells; details: Membrane vesicle
[10] = biological target: T1, ATP-binding cassette sub-family C member 10 (Homo sapiens); experiment: TP_TRANSPORTER: inhibition of E217betaG uptake (E217betaG: 1 uM, Estradiol-3-glucuronide: 100 uM) in membrane vesicles from MRP7-expressing HEK293 cells; details: Membrane vesicle
[11] = biological target: T1, ATP-binding cassette sub-family C member 10 (Homo sapiens); experiment: TP_TRANSPORTER: inhibition of E217betaG uptake (E217betaG: 1 uM, Glycocholate: 100uM) in membrane vesicles from MRP7-expressing HEK293 cells; details: Membrane vesicle
[12] = biological target: T1, ATP-binding cassette sub-family C member 10 (Homo sapiens); experiment: TP_TRANSPORTER: inhibition of E217betaG uptake (E217betaG: 1 uM, E2 3SO4 17betaG: 100uM) in membrane vesicles from MRP7-expressing HEK293 cells; details: Membrane vesicle
[13] = biological target: T1, ATP-binding cassette sub-family C member 10 (Homo sapiens); experiment: TP_TRANSPORTER: inhibition of E217betaG uptake (E217betaG: 1 uM, Zaprinast: 100uM) in membrane vesicles from MRP7-expressing HEK293 cells; details: Membrane vesicle
[14] = biological target: T1, ATP-binding cassette sub-family C member 10 (Homo sapiens); experiment: TP_TRANSPORTER: inhibition of E217betaG uptake (E217betaG: 1 uM, Glycholithocholate-3-sulfate: 30 uM) in membrane vesicles from MRP7-expressing HEK293 cells; details: Membrane vesicle
[15] = biological target: T1, ATP-binding cassette sub-family C member 10 (Homo sapiens); experiment: TP_TRANSPORTER: inhibition of E217betaG uptake (E217betaG: 1 uM, 16alpha,17beta-Estriol 3-sulfate: 100 uM) in membrane vesicles from MRP7-expressing HEK293 cells; details: Membrane vesicle
[16] = biological target: T1, ATP-binding cassette sub-family C member 10 (Homo sapiens); experiment: TP_TRANSPORTER: inhibition of E217betaG uptake (E217betaG: 1 uM, Taxol: 30 uM) in membrane vesicles from MRP7-expressing HEK293 cells; details: Membrane vesicle
[17] = biological target: T1, ATP-binding cassette sub-family C member 10 (Homo sapiens); experiment: TP_TRANSPORTER: inhibition of E217betaG uptake (E217betaG: 1 uM, MTX:100uM) in membrane vesicles from MRP7-expressing HEK293 cells; details: Membrane vesicle
[18] = biological target: T1, ATP-binding cassette sub-family C member 10 (Homo sapiens); experiment: TP_TRANSPORTER: inhibition of E217betaG uptake (E217betaG: 1 uM, Vincristine: 30 uM) in membrane vesicles from MRP7-expressing HEK293 cells; details: Membrane vesicle
[19] = biological target: T1, ATP-binding cassette sub-family C member 10 (Homo sapiens); experiment: TP_TRANSPORTER: inhibition of E217betaG uptake (E217betaG: 1 uM, 16alpha,17beta-Estriol 3-(beta-D-glucuronide): 100 uM) in membrane vesicles from MRP7-expressing HEK293 cells; details: Membrane vesicle
[20] = biological target: T1, ATP-binding cassette sub-family C member 10 (Homo sapiens); experiment: TP_TRANSPORTER: inhibition of E217betaG uptake (E217betaG: 1 uM, Sildefafil:100uM) in membrane vesicle from MRP7-expressing HEK293 cells
[21] = biological target: T1, ATP-binding cassette sub-family C member 10 (Homo sapiens); experiment: TP_TRANSPORTER: inhibition of E217betaG uptake (E217betaG: 1 uM, LTC4:1uM) in membrane vesicles from MRP7-expressing HEK293 cells; details: Membrane vesicle

Structure (SMILES): C[C@]12CC[C@@H]3c4ccc(O)cc4CC[C@H]3[C@@H]1C[C@@H](O[C@@H]1O[C@H](C(=O)O)[C@@H](O)[C@H](O)[C@H]1O)[C@@H]2O
Activity [1]: 53%

Activity [2]: 44.3%
Structure (SMILES): COc1cc2c(cc1OC)-c1c/c(=N\c3c(C)cc(C)cc3C)n(C)c(=O)n1CC2

Structure (SMILES): N[C@@H](CCC(=O)N[C@H](CSc1ccc([N+](=O)[O-])cc1[N+](=O)[O-])C(=O)NCC(=O)O)C(=O)O
Activity [3]: 46.4%

Activity [4]: 18.2%
Structure (SMILES): COc1cccc2c1C(=O)c1c(O)c3c(c(O)c1C2=O)C[C@@](O)(C(=O)CO)C[C@@H]3O[C@H]1C[C@H](N)[C@H](O)[C@H](C)O1

Activity [5]: 62.3%
Structure (SMILES): COc1ccc(CCN(C)CCCC(C#N)(c2ccc(OC)c(OC)c2)C(C)C)cc1OC (stereo unspecified)

Activity [6]: 49.5%
Structure (SMILES): COc1cc([C@@H]2c3cc4c(cc3[C@@H](O[C@@H]3O[C@@H]5CO[C@@H](C)O[C@H]5[C@H](O)[C@H]3O)[C@H]3COC(=O)[C@H]23)OCO4)cc(OC)c1O

Activity [7]: 51.4%
Structure (SMILES): C#C[C@]1(O)CC[C@H]2[C@@H]3CCc4cc(O)ccc4[C@H]3CC[C@@]21C

Activity [8]: 60.7%
Structure (SMILES): C[C@]12CC[C@@H]3c4ccc(O)cc4CC[C@H]3[C@@H]1CC[C@@H]2O

Activity [9]: 39.5%
Structure (SMILES): O=C1C(CC[S+]([O-])c2ccccc2)C(=O)N(c2ccccc2)N1c1ccccc1 (stereo unspecified)

Structure (SMILES): C[C@]12CC[C@@H]3c4ccc(O[C@@H]5O[C@H](C(=O)O)[C@@H](O)[C@H](O)[C@H]5O)cc4CC[C@H]3[C@@H]1CC[C@@H]2O
Activity [10]: 60.1%

Activity [11]: 58.4%
Structure (SMILES): C[C@H](CCC(=O)NCC(=O)O)[C@H]1CC[C@H]2[C@@H]3[C@H](O)C[C@@H]4C[C@H](O)CC[C@]4(C)[C@H]3C[C@H](O)[C@]12C

Activity [12]: 45.1%
Structure (SMILES): C[C@]12CC[C@@H]3c4ccc(OS(=O)(=O)O)cc4CC[C@H]3[C@@H]1CC[C@@H]2O[C@@H]1O[C@H](C(=O)O)[C@@H](O)[C@H](O)[C@H]1O

Activity [13]: 48.3%
Structure (SMILES): CCCOc1ccccc1-c1nc2[nH]nnc2c(=O)[nH]1

Structure (SMILES): C[C@H](CCC(=O)NCC(=O)O)[C@H]1CC[C@H]2[C@@H]3CC[C@@H]4C[C@H](OS(=O)(=O)O)CC[C@]4(C)[C@H]3CC[C@]12C
Activity [14]: 41.8%

Activity [15]: 49.4%
Structure (SMILES): C[C@]12CC[C@@H]3c4ccc(OS(=O)(=O)O)cc4CC[C@H]3[C@@H]1C[C@@H](O)[C@@H]2O

Activity [16]: 22.1%
Structure (SMILES): CC(=O)O[C@H]1C(=O)[C@@]2(C)[C@H]([C@H](OC(=O)c3ccccc3)[C@]3(O)C[C@H](OC(=O)[C@H](O)[C@@H](NC(=O)c4ccccc4)c4ccccc4)C(C)=C1C3(C)C)[C@]1(OC(C)=O)CO[C@@H]1C[C@@H]2O

Activity [17]: 74%
Structure (SMILES): CN(Cc1cnc2nc(N)nc(N)c2n1)c1ccc(C(=O)N[C@@H](CCC(=O)O)C(=O)O)cc1

Activity [18]: 18.4%
Structure (SMILES): CC[C@]1(O)C[C@H]2CN(CCc3c([nH]c4ccccc34)[C@@](C(=O)OC)(c3cc4c(cc3OC)N(C=O)[C@H]3[C@@](O)(C(=O)OC)[C@H](OC(C)=O)[C@]5(CC)C=CCN6CC[C@]43[C@@H]65)C2)C1

Structure (SMILES): C[C@]12CC[C@@H]3c4ccc(O[C@@H]5O[C@H](C(=O)O)[C@@H](O)[C@H](O)[C@H]5O)cc4CC[C@H]3[C@@H]1C[C@@H](O)[C@@H]2O
Activity [19]: 58.5%

Activity [20]: 41%
Structure (SMILES): CCCc1nn(C)c2c(=O)[nH]c(-c3cc(S(=O)(=O)N4CCN(C)CC4)ccc3OCC)nc12

Activity [21]: 40.4%
Structure (SMILES): CCCCC/C=C\C\C=C/C=C/C=C/[C@@H](SC[C@@H](NC(=O)CC[C@H](N)C(=O)O)C(=O)NCC(=O)O)[C@@H](O)CCCC(=O)O
